Assay [1] deals with Pseudomonas aeruginosa. Briefly: microbe, parasite or virus in culture. Conditions: ATCC 27853, 18 h, ASSAY_TEST Inhibition of Bacterial Growth, detection method Absorption (OD600), MEDIA CAMHB, plate type 384well, NBS, CORNING #3640.
Description: Antibacterial activity against Pseudomonas aeruginosa ATCC 27853 (CO-ADD:GN_042); MIC in CAMBH media using NBS plates, by OD(600)
Assay [2] deals with Cryptococcus neoformans.
Description: Antifungal activity against Cryptococcus neoformans H99 ATCC 208821 (CO-ADD:FG_002); MIC in YNB media using NBS plates, by Resazurin OD(600-570)
Assay [3] concerns Staphylococcus aureus. Briefly: microbe, parasite or virus in culture. Conditions: ATCC 43300, 18 h, ASSAY_TEST Inhibition of Bacterial Growth, detection method Absorption (OD600), MEDIA CAMHB, plate type 384well, NBS, CORNING #3640.
Description: Antibacterial activity against Staphylococcus aureus MRSA ATCC 43300 (CO-ADD:GP_020); MIC in CAMBH media, using NBS plates, by OD(600)
For assay [4], the system named is Acinetobacter baumannii. The assay is described as follows: microbe, parasite or virus in culture. Conditions: ATCC 19606, 18 h, ASSAY_TEST Inhibition of Bacterial Growth, detection method Absorption (OD600), MEDIA CAMHB, plate type 384well, NBS, CORNING #3640.
Description: Antibacterial activity against Acinetobacter baumannii ATCC 19606 (CO-ADD:GN_034); MIC in CAMBH media using NBS plates, by OD600
For assay [5], the system named is Escherichia coli. The assay is described as follows: microbe, parasite or virus in culture. The settings on record: ATCC 25922, 18 h, ASSAY_TEST Inhibition of Bacterial Growth, detection method Absorption (OD600), MEDIA CAMHB, plate type 384well, NBS, CORNING #3640.
Description: Antibacterial activity against Escherichia coli ATCC 25922 (CO-ADD:GN_001); MIC in CAMBH media using NBS plates, by OD(600)
For assay [6], the system named is Klebsiella pneumoniae. The assay is described as follows: microbe, parasite or virus in culture. Conditions: ATCC 700603, 18 h, ASSAY_TEST Inhibition of Bacterial Growth, detection method Absorption (OD600), MEDIA CAMHB, plate type 384well, NBS, CORNING #3640.
Description: Antibacterial activity against Klebsiella pneumoniae MDR ATCC 70063 (CO-ADD:GN_003); MIC in CAMBH media using NBS plates, by OD(600)
For assay [7], the system named is HEK293. The assay is described as follows: cells. The settings on record: Homo sapiens, ATCC CRL1573, HEK293; ASSAY_TEST Inhibition of Cell Viability; detection method Resazurin; Fluorescence (ex560/em590); MEDIA DMEM with 10% FBS; plate type 384well; TC; CORNING #3712; time 18 hr. Type of assay: functional.
For assay [8], the system named is Candida albicans. The assay is described as follows: microbe, parasite or virus in culture. The settings on record: ATCC 90028, ASSAY_TEST Inhibition of Fungal Growth, detection method Absorption (OD530), plate type 384well, NBS, CORNING #3640.
Description: Antifungal activity against Candida albicans ATCC 90028 (CO-ADD:FG_001); MIC in YNB media using NBS plates, by OD630

In brackets after ≈: the same amount, converted by molar mass. Where only a bound is given, the exact number is not on record here.

Consider `CCCCCCCNC(=O)/C=C/NC(=O)[C@H](O)C(C)(C)CO`, for which the MIC in assay [1], in assay [2], in assay [3], in assay [4], in assay [5] and in assay [6] was more than 32 µg/mL each time. In assay [8], this compound registered an MIC of more than 32 µg/mL. In addition, the CC50 in assay [7] is more than 32 µg/mL.
As for `CCCCCCCNC(=O)C(C)CNC(=O)[C@H](O)C(C)(C)CO` (stereo not given in full), the MIC in assay [1], in assay [2], in assay [3], in assay [4], in assay [5] and in assay [6] was more than 32 µg/mL throughout. In addition, the MIC in assay [8] was more than 32 µg/mL. Also, the CC50 in assay [7] was more than 32 µg/mL.
As for `CCCCCCCNC(=O)CCNC(=O)[C@H](O)C(C)(C)CO`, the MIC in assay [1] is more than 32 µg/mL; in assay [2], more than 32 µg/mL; in assay [3], 0.5 µg/mL (≈ 1.58 µM); in assay [4], more than 32 µg/mL; in assay [5], more than 32 µg/mL; in assay [6], more than 32 µg/mL. Besides, the MIC in assay [8] is more than 32 µg/mL. For the same compound, the CC50 in assay [7] was more than 32 µg/mL.
As to `CC(C)(CO)[C@@H](O)C(=O)NCCC(=O)NCCc1ccccc1`, the MIC in assay [1] was more than 32 µg/mL; in assay [2], more than 32 µg/mL; in assay [3], 32 µg/mL (≈ 99.3 µM); in assay [4] it was more than 32 µg/mL; in assay [5] it was more than 32 µg/mL; in assay [6], more than 32 µg/mL. Besides, the MIC in assay [8] was more than 32 µg/mL. Also, the CC50 in assay [7] is more than 32 µg/mL.
On to `CCCCCCCN(C)C(=O)CCNC(=O)[C@H](O)C(C)(C)CO`, for which the MIC in assay [1], in assay [2], in assay [3], in assay [4], in assay [5] and in assay [6] was more than 32 µg/mL in each case. In addition, the MIC in assay [8] was more than 32 µg/mL. Besides, the CC50 in assay [7] was more than 32 µg/mL.
As for `CC(CNC(=O)[C@H](O)C(C)(C)CO)C(=O)NCCc1ccccc1` (stereo not given in full), the MIC in assay [1], in assay [2], in assay [3], in assay [4], in assay [5] and in assay [6] was more than 32 µg/mL in each case. Further, the MIC in assay [8] is more than 32 µg/mL. In assay [7], this compound returned a CC50 of more than 32 µg/mL.
In the case of `CN(CCc1ccccc1)C(=O)CCNC(=O)[C@H](O)C(C)(C)CO`, the MIC in assay [1], in assay [2], in assay [3], in assay [4], in assay [5] and in assay [6] was more than 32 µg/mL in each case. The compound further had an MIC in assay [8] of more than 32 µg/mL. This compound gave a CC50 in assay [7] of more than 32 µg/mL.
With `CCCCCCCNC(=O)CC(C)NC(=O)[C@H](O)C(C)(C)CO` (stereo not given in full), the MIC in assay [1], in assay [2], in assay [3], in assay [4], in assay [5] and in assay [6] was more than 32 µg/mL each time. Besides, the MIC in assay [8] was more than 32 µg/mL. In assay [7], this compound registered a CC50 of more than 32 µg/mL.
For the compound `CCCCCCCNC(=O)CCNC(=O)C(O)C(C)(C)CN` (stereo not given), the MIC in assay [1], in assay [2], in assay [3], in assay [4], in assay [5] and in assay [6] was more than 32 µg/mL throughout. In addition, in assay [8], the MIC is more than 32 µg/mL. The CC50 in assay [7] was more than 32 µg/mL.
Turning to `CCCCCCCNC(=O)CCNC(=O)[C@H](O)C(C)(C)COP(=O)(O)O`, the MIC in assay [1], in assay [2], in assay [3], in assay [4], in assay [5] and in assay [6] was more than 32 µg/mL throughout. For the same compound, in assay [8], the MIC is more than 32 µg/mL. The CC50 in assay [7] was more than 32 µg/mL.

By CC50 is commonly meant the concentration giving 50% cytotoxicity.

For the origin of these results see ChEMBL document CHEMBL4513148, “CO-ADD screening of Stellenbosch University (South Africa) compounds”.
